Assay results from patent US10335399B2, “Chromane, isochromane and dihydroisobenzofuran derivatives as mGluR2—negative allosteric modulators, compositions, and their use” (Merck Sharp & Dohme Corp., priority 2016, dated 2019).

Molecular target: recombinant human mGluR2 (Homo sapiens (Human), UniProt Q14416)
Test: FLIPR Ca2+ mobilization assay: inhibition of glutamate-dependent mGluR2 activity
Assay type: cell-based
Conditions: CHO dhfr- cells stably expressing recombinant human mGluR2 and Gα16, Fluo-4 AM, FLIPR384; inhibition of response to 2,500 nM glutamate
Experimental: Inhibition constants (IC50s; the concentration of compound required to provide 50% of maximal activity) are determined as follows. The compounds of the invention were tested in a fluorescence laser imaging plate reader based assay. This assay is a common functional assay to monitor Ca^2+ mobilization in whole cells expressing recombinant receptor coupled with a promiscuous G-protein. CHO (Chinese hamster ovary) dhfr− cells stably expressing recombinant human mGluR2 and Gα16 loaded with Fluo-4 AM (Invitrogen, Carlsbad Calif., USA) were treated with various concentrations of each of the tested compounds of the invention and the Ca^2+ response was monitored on a FLIPR384 instrument (Molecular Devices, Sunnydale Calif., USA). […] The maximum calcium response at each concentration of compound for agonist or antagonist were plotted as dose responses and the curves were fitted with a four parameter logistic equation giving IC50 and Hill coefficient using the iterative non-linear curve fitting software ADA (Merck & Co., Inc.). Data in the following table lists the activity of each compound to inhibit glutamate-dependent mGluR2 activity in this cellular assay.

Sequence of recombinant human mGluR2 (Q14416 19-872): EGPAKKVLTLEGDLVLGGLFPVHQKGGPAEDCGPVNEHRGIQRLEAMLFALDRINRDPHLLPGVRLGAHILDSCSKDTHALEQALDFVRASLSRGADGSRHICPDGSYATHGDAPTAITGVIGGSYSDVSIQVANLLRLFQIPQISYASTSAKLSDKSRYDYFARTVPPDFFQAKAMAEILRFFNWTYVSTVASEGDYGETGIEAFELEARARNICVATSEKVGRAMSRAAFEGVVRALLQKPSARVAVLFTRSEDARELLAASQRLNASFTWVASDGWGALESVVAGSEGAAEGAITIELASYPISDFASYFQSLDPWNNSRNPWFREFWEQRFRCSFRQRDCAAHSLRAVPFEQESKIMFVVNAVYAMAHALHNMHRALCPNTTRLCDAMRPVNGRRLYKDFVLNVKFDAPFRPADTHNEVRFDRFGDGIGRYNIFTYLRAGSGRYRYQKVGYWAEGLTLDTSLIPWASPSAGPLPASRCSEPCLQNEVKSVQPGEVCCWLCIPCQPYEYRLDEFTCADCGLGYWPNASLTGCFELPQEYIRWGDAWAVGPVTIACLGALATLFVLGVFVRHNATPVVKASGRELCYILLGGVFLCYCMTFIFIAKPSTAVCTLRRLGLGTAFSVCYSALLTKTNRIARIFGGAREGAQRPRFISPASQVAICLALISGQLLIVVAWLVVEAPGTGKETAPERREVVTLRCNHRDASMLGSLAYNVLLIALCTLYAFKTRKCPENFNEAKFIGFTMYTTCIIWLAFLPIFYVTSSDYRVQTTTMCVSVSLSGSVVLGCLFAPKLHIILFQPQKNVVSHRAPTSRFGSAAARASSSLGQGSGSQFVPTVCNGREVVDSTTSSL

SMILES | IC50
C[C@H](OC(F)F)[C@@H]1CCc2c(-c3ccc(F)cc3F)cc(C(N)=O)nc2O1 (single isomer, unassigned) [Example 2-9A] | 18 nM
NC(=O)c1cc(-c2ccc(F)cc2)c2c(n1)OC(COC(F)F)CC2 (single isomer, unassigned) [Example 3-2A, (S)- or (R)-2-((difluoro-methoxy)methyl)-5-(4-fluorophenyl)-3,4-dihydro-2H-pyrano[2,3-b]pyridine-7-carboxamide] | 18 nM
NC(=O)c1cc(-c2ccc(F)cc2)c2c(n1)OC(COC(F)F)CC2 (single isomer, unassigned) [Example 3-2B, (R)- or (S)-2-((difluoro-methoxy)methyl)-5-(4-fluorophenyl)-3,4-dihydro-2H-pyrano[2,3-b]pyridine-7-carboxamide] | 86 nM
Cc1ncc(-c2cc(C(N)=O)nc3c2CCC(COC(F)F)O3)s1 (single isomer, unassigned) [Example 3-3A, (S)- or (R)-2-((difluoro-methoxy)methyl)-5-(2-methylthiazol-5-yl)-3,4-dihydro-2H-pyrano[2,3-b]pyridine-7-carboxamide] | 536 nM
Cc1ncc(-c2cc(C(N)=O)nc3c2CCC(COC(F)F)O3)s1 (single isomer, unassigned) [Example 3-3B, (R)- or (S)-2-((difluoro-methoxy)methyl)-5-(2-methylthiazol-5-yl)-3,4-dihydro-2H-pyrano[2,3-b]pyridine-7-carboxamide] | 2520 nM
NC(=O)c1cc(-c2cnn(C(F)F)c2)c2c(n1)OC(COC(F)F)CC2 (single isomer, unassigned) [Example 3-4A, (S)- or (R)-2-((difluoro-methoxy)methyl)-5-(1-(difluoromethyl)-1H-pyrazol-4-yl)-3,4-dihydro-2H-pyrano[2,3-b]pyridine-7-carboxamide] | 274 nM
NC(=O)c1cc(-c2cnn(C(F)F)c2)c2c(n1)OC(COC(F)F)CC2 (single isomer, unassigned) [Example 3-4B, (R)- or (S)-2-((difluoro-methoxy)methyl)-5-(1-(difluoromethyl)-1H-pyrazol-4-yl)-3,4-dihydro-2H-pyrano[2,3-b]pyridine-7-carboxamide] | 1490 nM
COC[C@@H]1CCc2c(-c3ccc(F)cc3F)cc(C(N)=O)nc2O1 (single isomer, unassigned) [Example 3-5A] | 26 nM
COC[C@H]1CCc2c(-c3ccc(F)cc3F)cc(C(N)=O)nc2O1 (single isomer, unassigned) [Example 3-5B] | 27 nM
NC(=O)c1cc(-c2ccc(F)cc2F)c2c(n1)O[C@H](CF)CC2 (single isomer, unassigned) [Example 3-6A] | 52 nM
NC(=O)c1cc(-c2ccc(F)cc2F)c2c(n1)O[C@@H](CF)CC2 (single isomer, unassigned) [Example 3-6B] | 10 nM
NC(=O)c1cc(-c2ccc(F)cc2F)c2c(n1)O[C@H](CC(F)(F)F)CC2 (single isomer, unassigned) [Example 3-8A] | 12 nM
NC(=O)c1cc(-c2ccc(F)cc2F)c2c(n1)O[C@@H](CC(F)(F)F)CC2 (single isomer, unassigned) [Example 3-8B] | 24 nM
C[C@@H]1Cc2c(-c3ccc(F)cc3F)cc(C(N)=O)nc2O[C@@H]1COC(F)F (single isomer, unassigned) [Example 3-9A] | 7 nM
C[C@H]1Cc2c(-c3ccc(F)cc3F)cc(C(N)=O)nc2O[C@@H]1COC(F)F (single isomer, unassigned) [Example 3-9B] | 19 nM
C[C@H]1Cc2c(-c3ccc(F)cc3F)cc(C(N)=O)nc2O[C@H]1COC(F)F (single isomer, unassigned) [Example 3-9D] | 9 nM
CN(C[C@@H]1CCc2c(-c3ccc(F)cc3F)cc(C(N)=O)nc2O1)CC(F)(F)F (single isomer, unassigned) [Example 4-1A] | 25 nM
CN(C[C@H]1CCc2c(-c3ccc(F)cc3F)cc(C(N)=O)nc2O1)CC(F)(F)F (single isomer, unassigned) [Example 4-1B] | 74 nM
